Measured values as given in US20260176249A1, “PROTEIN KINASE INHIBITOR, PREPARATION METHOD THEREFOR, AND APPLICATION THEREOF” (SHANDONG LUYE PHARMACEUTICAL CO., LTD., priority 2021, published 2026).
Read-outs that look alike come from different tables or passages of the source.

Legend:
[1] = Metabolic stability in human liver microsomes; type: in vitro ADME; settings: for CLint scaled at 1 µM / half-life at 1 µM / microsomal CLint at 1 µM: human; for CLint scaled at 1 µM / half-life at 1 µM: pH 7.4; for microsomal CLint at 1 µM: pH 7.4, read-out: CLint(mic)
Summary of the method: (§1)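 Compounds incubated at 37 °C with mouse, rat or human liver microsomes in 100 mM phosphate buffer pH 7.4, started with NADPH/MgCl2 and sampled at 0–60 min. Parent remaining quantified by LC-MS. T1/2 and CLint(mic) derived from depletion, scaled to CLint using 45 mg protein/g liver and species liver/body weight ratios.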

[2] = Metabolic stability in mouse liver microsomes; type: in vitro ADME; settings: for CLint scaled at 1 µM / half-life at 1 µM / microsomal CLint at 1 µM: mouse; for CLint scaled at 1 µM / half-life at 1 µM: pH 7.4; for microsomal CLint at 1 µM: pH 7.4, read-out: CLint(mic)
Summary of the method: as §1

[3] = Metabolic stability in rat liver microsomes; type: in vitro ADME; settings: for CLint scaled at 1 µM / half-life at 1 µM / microsomal CLint at 1 µM: rat; for CLint scaled at 1 µM / half-life at 1 µM: pH 7.4; for microsomal CLint at 1 µM: pH 7.4, read-out: CLint(mic)
Summary of the method: as §1

HCT116 cells [4] = assay: Inhibitory activity on HCT116 cell proliferation (ATPlite); type: cell-based; settings: Homo sapiens, HCT-116, HCT116 cells, 72 h
Protocol: Cell culture medium: RPMI1640+10% FBS (GBICO)
Cell culture plate: 96-well plate (Shanghai Jingan Biotechnology Co., Ltd.)
Detection kit: ATPlite 1step Luminescence (PerkinElmer)
Detection instrument: BioTek multifunctional microplate reader
2. Test method: HCT116 cells in the logarithmic growth phase were seeded into a white-wall clear-bottom 96-well plate at a density of 720 cells per well, and cultured overnight in a 37° C., 5% CO2 incubator. […] After adding the drug, culturing was continued for 72 h in a 37° C., 5% CO2 incubator.
GraphPad Prism 7.0 was used to process the data, the cell inhibition rate curve was obtained and IC50 was calculated.

HCT116 cells [5] = assay: In vivo pharmacodynamic study of compound 18 in HCT116 tumor-bearing mice; parameters: species or system Balb/C Nude mice; settings: 60 mg/kg once a day by gavage
Protocol: (§2) a. Establishment of tumor-bearing mouse model: HCT116 cells in the logarithmic growth phase were taken and cultured, the cells were collected and counted, and then subcutaneously inoculated into Balb/C Nude mice at 1×10^6/mouse. The tumor volume and body weight of the mice were measured regularly. 7 days after inoculation, mice with tumor volume of 150 mm3 were randomly divided into groups and treated with corresponding drugs.
(§3) 3. Data processing: All data were organized in EXCEL, and One-way ANOVA analysis and drawing were performed using GraphPad Prism 8.0 software. Statistical significance was achieved when p<0.05.
1. Experiment materials: Same as Test example 5.
a. Establishment of tumor-bearing mouse model: Same as Test example 5.
b. […] The administration was performed once a day by gavage for 7 consecutive days, and the tumor volume and body weight of the mice were measured regularly.
3. Data processing: Same as Test example 5.

HCT116 cells [6] = assay: In vivo pharmacodynamic study of compound 1 in HCT116 tumor-bearing mice; parameters: species or system Balb/C Nude mice; settings: 20 mg/kg once a day by gavage, vs sham group
Text: Balb/C Nude mice, SPF grade, male, weighing 18-20 g, were purchased from Jiangsu Gempharmatech Co., Ltd.
HCT116 cells were purchased from ATCC.
Matrigel Matrix, Cat. No. 354248, was purchased from Becton, Dickinson and Company.
Kolliphor® HS 15, Cat. No. 42966, was purchased from Sigma-Aldrich.
as §2
b. […] The administration was performed once a day by gavage for 21 consecutive days, and the tumor volume and body weight of the mice were measured regularly.
as §3

[7] = read-out: half inhibitory concentration

Row | Compound | 60 min remaining amount [1] [%] | Clearance rate [1] | CLint scaled at 1 µM [1] [mL/min/kg] | half-life at 1 µM [1] [min] | microsomal CLint at 1 µM [1] [µL/min/mg] | 60 min remaining amount [2] [%] | Clearance rate [2] | CLint scaled at 1 µM [2] [mL/min/kg] | half-life at 1 µM [2] [min] | microsomal CLint at 1 µM [2] [µL/min/mg] | 60 min remaining amount [3] [%] | Clearance rate [3] | CLint scaled at 1 µM [3] [mL/min/kg] | half-life at 1 µM [3] [min] | microsomal CLint at 1 µM [3] [µL/min/mg] | IC50 (HCT116 cells [4]; read-out: IC50) [nM] | also measured
1 | CN1CCN(c2ccc(OC(F)(F)F)c(Nc3ncc4c(n3)-c3c(c(C(N)=O)nn3CCC#N)CC4)c2)CC1 [Compound 4] | 23.7 | Medium | 44.1 | 28.3 | 49 | 1.33 | High | 1230 | 4.47 | 310 | 2.76 | High | 211 | 11.8 | 117 | 332 | –
2 | CN1CCN(c2ccc(OC(F)(F)F)c(Nc3ncc4c(n3)-c3c(c(C(=O)NN)nn3CCO)CC4)c2)CC1 [Compound 13] | 58.5 | Medium | 17.5 | 71.4 | 19.4 | 38.6 | Medium | 123 | 44.7 | 31 | 27.8 | Medium | 74.5 | 33.5 | 41.4 | 831 | –
3 | Cn1nc(C(N)=O)c2ccc3cnc(Nc4cc(N5CCN(CCO)CC5)ccc4OC(F)(F)F)nc3c21 [Compound 16] | 23.3 | Medium | 44.1 | 28.3 | 49 | 24.6 | Medium | 184 | 29.9 | 46.4 | 21.6 | Medium | 90 | 27.7 | 50.5 | 502 | –
4 | CN1CCN(c2ccc(OC(F)(F)F)c(Nc3ncc4c(n3)-c3c(c(C(N)=O)cn3CCO)CC4)c2)CC1 [Compound 2] | 49.9 | Medium | 22.7 | 55 | 25.2 | 26.7 | Medium | 175 | 31.4 | 44.2 | 17.0 | Medium | 103 | 24.3 | 57 | 27 | IC50 (HCT116 cells [4]; [7]): 27 nM
5 | Cn1nc(C(N)=O)c2c1-c1nc(Nc3cc(N4CCN(CCO)CC4)ccc3OC(F)(F)F)ncc1CC2 [Compound 20] | 26.5 | Medium | 39.1 | 31.9 | 43.4 | 15.9 | High | 238 | 23.1 | 60 | 21.6 | Medium | 95.4 | 26.2 | 53 | 143 | –

More lines, main results first:

Row | 60 min remaining amount [1] [%] | Clearance rate [1] | CLint scaled at 1 µM [1] [mL/min/kg] | half-life at 1 µM [1] [min] | microsomal CLint at 1 µM [1] [µL/min/mg] | 60 min remaining amount [2] [%] | Clearance rate [2] | CLint scaled at 1 µM [2] [mL/min/kg] | half-life at 1 µM [2] [min] | microsomal CLint at 1 µM [2] [µL/min/mg] | 60 min remaining amount [3] [%] | Clearance rate [3] | CLint scaled at 1 µM [3] [mL/min/kg] | half-life at 1 µM [3] [min] | microsomal CLint at 1 µM [3] [µL/min/mg] | IC50 (HCT116 cells [4]; read-out: IC50) [nM] | Compound | also measured
6 | 40.1 | Medium | 28.6 | 43.6 | 31.8 | 58.2 | Medium | 74.4 | 73.7 | 18.8 | 47.9 | Medium | 46.4 | 53.7 | 25.8 | 32 | CN1CCN(c2ccc(OCC(F)(F)F)c(Nc3ncc4c(n3)-c3c(c(C(N)=O)nn3CCO)CC4)c2)CC1 [Compound 24] | IC50 (HCT116 cells [4]; [7]): 32 nM
7 | 64.8 | Medium | 15.3 | 81.5 | 17 | 21.5 | Medium | 202 | 27.2 | 51 | 15.7 | Medium | 110 | 22.7 | 61 | 42 | CN1CCN(c2ccc(OC(F)(F)F)c(Nc3ncc4c(n3)-c3c(c(C(N)=O)nn3CCO)CC4)c2)CC1 [Onvansertib, reference compound] | body weight decrease compared to before administration (HCT116 cells [5]; 5 days): 8.4%; body weight decrease compared to before administration (HCT116 cells [5]; 7 days): 19.5%; tumor inhibition rate (HCT116 cells [5]; 7 days, vs control group): 62.7%; tumor inhibition rate (HCT116 cells [6]; 11 days): 54.9%; tumor inhibition rate (HCT116 cells [6]; 16 days): 39.6%; tumor inhibition rate (HCT116 cells [6]; 21 days): 37.0%
